The source of these data is PubChem BioAssay AID206 (DTP/NCI, 2004).

This assay has as its system nude mice, HT29 intrarenal xenograft, tumor weight T/C. Nature of the assay: NCI In Vivo Anticancer Drug Screen. Data for tumor model HT29;CX-1 Human Adenocarcinoma (MER+) (intrarenal inoculation) in NU/NU Swiss (nude) mice. The note with it: endpoint: mean tumor weight change, higher = larger tumour. The gist of the method:
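Endpoint measured as tumor size or survival; ratio reported is treated group over vehicle controls.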

The mark [1] stands for this setting: dose: 150.0 mg/kg/injection, schedule: Q04DX004 (sc), vehicle: saline with Tween-80.
Where [2] appears, read: dose: 300.0 mg/kg/injection, schedule: Q04DX004 (sc), vehicle: saline with Tween-80.
Where [3] appears, read: dose: 75.0 mg/kg/injection, schedule: Q04DX004 (sc), vehicle: saline with Tween-80.

Structures are written as SMILES. Where “and” joins values, the source holds several entries; their conditions need not be identical. Identical values can stand only once. Inconclusive results are not listed.

For `O=NN(CCCl)C(=O)NC1CCCCC1`, the T/C is 85 % of control (dose: 8.0 mg/kg/injection, schedule: Q01DX010 (sc), vehicle: saline with Tween-80); 99 % of control (dose: 8.0 mg/kg/injection, schedule: Q04DX004 (sc), vehicle: carboxymethylcellulose (CMC)); 42 % of control (dose: 16.0 mg/kg/injection, schedule: Q01DX010 (sc), vehicle: saline with Tween-80); 86 % of control (dose: 16.0 mg/kg/injection, schedule: Q04DX004 (sc), vehicle: carboxymethylcellulose (CMC)); 63 % of control (dose: 25.0 mg/kg/injection, schedule: Q04DX004 (sc), vehicle: Klucel (hydroxypropylcellulose) (HPC)); 77 % of control (dose: 32.0 mg/kg/injection, schedule: Q01DX010 (sc), vehicle: saline with Tween-80). Moreover, the T/C runs as follows: (dose: 32.0 mg/kg/injection, schedule: Q04DX004 (sc), vehicle: carboxymethylcellulose (CMC)) 89 % of control; (dose: 50.0 mg/kg/injection, schedule: Q04DX004 (sc), vehicle: Klucel (hydroxypropylcellulose) (HPC)) 116 % of control; (dose: 64.0 mg/kg/injection, schedule: Q04DX004 (sc), vehicle: carboxymethylcellulose (CMC)) 101 % of control.

As for `CN=S(=O)(OCCCCCOS(=O)(=NC)c1ccccc1)c1ccccc1` (stereo not drawn), the T/C under setting [1] was 66 % of control; the T/C under setting [2] is 60 % of control; the T/C (dose: 600.0 mg/kg/injection, schedule: Q04DX004 (sc), vehicle: saline with Tween-80) was 27 % of control.

With `CCCCCCCCCCCCSC1=C(Cl)C(=O)C(OC)=C(OC)C1=O`, the T/C is, setting by setting: under setting [3], 76 % of control; under setting [1], 36 % of control; under setting [2], 25 % of control.

Turning to `CCN1/C(=C/C=C/C=C/c2sc3ccccc3[n+]2CC)Sc2ccccc21`, the T/C is 77 % of control (dose: 0.38 mg/kg/injection, schedule: Q04DX004 (sc), vehicle: suspension in saline); 72 % of control (dose: 0.75 mg/kg/injection, schedule: Q04DX004 (sc), vehicle: suspension in saline); 104 % of control (dose: 1.5 mg/kg/injection, schedule: Q04DX004 (sc), vehicle: suspension in saline); 89 % of control (dose: 3.0 mg/kg/injection, schedule: Q04DX004 (sc), vehicle: suspension in saline).

Take `Nc1nc(/C=C(/O)c2ccccc2)c2ncn(C3OC(CO)C(O)C3O)c2n1` (stereo not drawn): the T/C (dose: 50.0 mg/kg/injection, schedule: Q04DX004 (sc), vehicle: distilled water + Tween-80) was 52 % of control; the T/C (dose: 100.0 mg/kg/injection, schedule: Q04DX004 (sc), vehicle: distilled water + Tween-80) is 70 % of control; the T/C (dose: 200.0 mg/kg/injection, schedule: Q04DX004 (sc), vehicle: distilled water + Tween-80) was 155 % of control; the T/C (dose: 400.0 mg/kg/injection, schedule: Q04DX004 (sc), vehicle: distilled water + Tween-80) is 80 % of control.

Take `O=C(O)CCCc1ccc(N(CCCl)CCCl)cc1`: the T/C runs as follows: (dose: 0.13 mg/kg/injection, schedule: Q04DX004 (ip), vehicle: Klucel (hydroxypropylcellulose) (HPC)) 88 % of control; (dose: 0.2 mg/kg/injection, schedule: Q04DX004 (ip), vehicle: Klucel (hydroxypropylcellulose) (HPC)) 109 % of control; (dose: 0.3 mg/kg/injection, schedule: Q04DX004 (ip), vehicle: Klucel (hydroxypropylcellulose) (HPC)) 83 % of control.

With `C=C1C(=O)OCC1C(=O)O` (stereo not drawn), the T/C reads like this: (dose: 50.0 mg/kg/injection, schedule: Q04DX004 (sc), vehicle: suspension in saline) 87 % of control; (dose: 100.0 mg/kg/injection, schedule: Q04DX004 (sc), vehicle: suspension in saline) 48 % of control; (dose: 200.0 mg/kg/injection, schedule: Q04DX004 (sc), vehicle: suspension in saline) 48 % of control.

For `COc1cccc2c1C(=N)c1c(O)c3c(c(O)c1C2=O)C[C@@](O)(C(C)=O)C[C@@H]3OC1CC(N)C(O)C(C)O1` (stereo partly drawn), the T/C (dose: 10.0 mg/kg/injection, schedule: Q04DX004 (sc), vehicle: water) was 102 % of control and the T/C (dose: 40.0 mg/kg/injection, schedule: Q04DX004 (sc), vehicle: water) was 53 % of control.

Consider `C[C@]12CC[C@@H]3c4ccc(OC(=O)Cc5ccc(N(CCCl)CCCl)cc5)cc4CC[C@H]3[C@@H]1CC[C@@H]2OC(=O)Cc1ccc(N(CCCl)CCCl)cc1`, for which the T/C by setting is: (dose: 200.0 mg/kg/injection, schedule: Q04DX004 (sc), vehicle: saline with Tween-80) 106 % of control; (dose: 400.0 mg/kg/injection, schedule: Q04DX004 (sc), vehicle: saline with Tween-80) 70 % of control; (dose: 800.0 mg/kg/injection, schedule: Q04DX004 (sc), vehicle: saline with Tween-80) 113 % of control; (dose: 1600.0 mg/kg/injection, schedule: Q04DX004 (sc), vehicle: saline with Tween-80) 111 % of control.

Take `O=C1C2(Cl)C3(Cl)C4(Cl)C(Cl)(Cl)C5(Cl)[C@]3(Cl)C1(Cl)[C@]5(Cl)C24Cl` (stereo partly drawn): the T/C (dose: 75.0 mg/kg/injection, schedule: Q04DX004 (sc), vehicle: Klucel (hydroxypropylcellulose) (HPC)) is 60 % of control.

Regarding `Nc1nc(N)c2c(Cl)c(CNc3ccc(Cl)c(Cl)c3)ccc2n1`, the T/C runs as follows: (dose: 9.38 mg/kg/injection, schedule: Q04DX004 (sc), vehicle: saline with Tween-80) 85 % of control; (dose: 18.75 mg/kg/injection, schedule: Q04DX004 (sc), vehicle: saline with Tween-80) 60 % of control; (dose: 37.5 mg/kg/injection, schedule: Q04DX004 (sc), vehicle: saline with Tween-80) 89 % of control and 94 % of control; under setting [3], 91 % of control and 97 % of control; under setting [1], 113 % of control; under setting [2], 64 % of control.

For the compound `COC(=O)Nc1ccc(Cc2ccc(NC(=O)OC)cc2)cc1`, the T/C was 26 % of control (dose: 100.0 mg/kg/injection, schedule: Q01DX010 (sc), vehicle: saline with Tween-80); 100 % of control (dose: 200.0 mg/kg/injection, schedule: Q01DX010 (sc), vehicle: saline with Tween-80); 152 % of control (dose: 400.0 mg/kg/injection, schedule: Q01DX010 (sc), vehicle: saline with Tween-80); 58 % of control (dose: 800.0 mg/kg/injection, schedule: Q01DX010 (sc), vehicle: saline with Tween-80).

Consider `COC(=O)C12OCC34C(CC5C(C)=CC(=O)C(O)C5(C)C3C(O)C1O)OC(=O)C(OC(=O)CC(C)C)C24` (stereo not drawn), for which the T/C was 59 % of control (dose: 1.5 mg/kg/injection, schedule: Q04DX004 (sc), vehicle: saline + alcohol) and 76 % of control (dose: 3.0 mg/kg/injection, schedule: Q04DX004 (sc), vehicle: saline + alcohol).

As for `CCC1(O)CC2CN(CCc3c([nH]c4ccccc34)C(C(=O)OC)(c3cc4c(cc3OC)N(C)C3C(O)(C(N)=O)C(O)C5(CC)C=CCN6CCC43C65)C2)C1` (stereo not drawn) (tested in a mixture with another compound), the T/C reads like this: (dose: 1.5 mg/kg/injection, schedule: Q04DX004 (sc), vehicle: water) 87 % of control; (dose: 12.0 mg/kg/injection, schedule: Q04DX004 (sc), vehicle: water) -25 % of control.

On to `CC(=O)c1c(O)c(C)c(O)c2c1OC1=CC(=O)C(C(C)=O)C(=O)C12C` (stereo not drawn), for which the T/C is, setting by setting: (dose: 300.0 mg/kg/injection, schedule: Q04DX004 (sc), vehicle: sodium bicarbonate) 104 % of control; (dose: 600.0 mg/kg/injection, schedule: Q04DX004 (sc), vehicle: sodium bicarbonate) 91 % of control; (dose: 800.0 mg/kg/injection, schedule: Q01DX010 (sc), vehicle: sodium bicarbonate) 3 % of control and 9 % of control.

Take `Cc1c2c(ccc3ccccc32)c[n+]2ccccc12`: the T/C reads like this: (dose: 6.25 mg/kg/injection, schedule: Q01DX010 (sc), vehicle: saline) 84 % of control; (dose: 12.5 mg/kg/injection, schedule: Q01DX010 (sc), vehicle: saline) 82 % of control.

Turning to `C=C1C(C)C2C(Cc3ccccc3)NC(=O)C23C(OC(C)=O)/C=C/C(C)(O)CC(C)C/C=C/C3C1O` (stereo not drawn), the T/C reads like this: (dose: 3.13 mg/kg/injection, schedule: Q04DX004 (sc), vehicle: distilled water + Tween-80) 42 % of control; (dose: 6.25 mg/kg/injection, schedule: Q04DX004 (sc), vehicle: distilled water + Tween-80) 124 % of control; (dose: 12.5 mg/kg/injection, schedule: Q04DX004 (sc), vehicle: distilled water + Tween-80) 87 % of control; (dose: 25.0 mg/kg/injection, schedule: Q04DX004 (sc), vehicle: distilled water + Tween-80) 63 % of control.

In the case of `N=C(N)CCCCCCCCC(=N)N`, the T/C (dose: 18.75 mg/kg/injection, schedule: Q04DX004 (sc), vehicle: saline) was 101 % of control.

With `Nc1ccc(Cl)cc1N`, the T/C by setting is: (dose: 450.0 mg/kg/injection, schedule: Q04DX004 (sc), vehicle: saline with Tween-80) 41 % of control; (dose: 900.0 mg/kg/injection, schedule: Q04DX004 (sc), vehicle: saline with Tween-80) 78 % of control; (dose: 1800.0 mg/kg/injection, schedule: Q04DX004 (sc), vehicle: saline with Tween-80) 30 % of control.
